Numbered stars: 1 amine (or outer) side, 2 acyl side, 3 side chain; on linkers, the order of the positions; unused ones are H or OH. Square brackets hold non-standard residues; d marks the D form. Peptide text beside a SMILES is read from it. ξ: configuration not given here. ξNMeVal(3-OH) = CNC(C(=O)O)C(C)(C)O; NMeF = CN[CH](Cc1ccccc1)C(=O)O; X1 = CCC(C)C(O[*:1])C(=O)[*:2]; NMeV = CN[CH](C(=O)O)C(C)C
Columns and labels:
Alternaria solani = assay: microbe, parasite or virus in culture; assay type: cell-based
From the text: (§1) A synergistic effect exists whenever the action of an active ingredient combination is greater than the sum of the actions of the individual components. The action to be expected E for a given active ingredient combination obeys the so-called COLBY formula and can be calculated as follows (COLBY, S.R. “Calculating synergistic and antagonistic responses of herbicide combination”, Weeds, Vol. 15, pages 20-22; 1967): • ppm = milligrams of active ingredient (= a.i.) per liter of spray mixture, • X = % action by active ingredient (A) using p ppm of active ingredient, • Y = % action by active ingredient (B) using q ppm of active ingredient. • According to COLBY, the expected (additive) action of active ingredients (A)+(B) using p+q ppm of active ingredient is • [formula]
The compositions according to the invention are tested for their biological (fungicidal) activity as dimethylsulfoxide (DMSO) solutions using one or more of the following protocols (Examples 1-1 and 1-2). A standard description of the liquid culture tests is provided in Example 1.
Mycelia fragments or conidia suspensions of a fungus, prepared either freshly from liquid cultures of the fungus or from cryogenic storage, are directly mixed into nutrient broth. DMSO solutions of the test compound (max. 10 mg/mL) is diluted with 0.025% Tween20 by factor 50 and 10 µL of this solution is pipetted into a microtiter plate (96-well format). The nutrient broth containing the fungal spores/mycelia fragments is then added to give an end concentration of the tested compound. The test plates are incubated in the dark at 24° C. and 96% relative humidity (rh). […]
Conidia of the fungus from cryogenic storage were directly mixed into nutrient broth (PDB potato dextrose broth). After placing a DMSO solution of the test compositions into a microtiter plate (96-well format) the nutrient broth containing the fungal spores was added.

Botrytis cinerea = assay: microbe, parasite or virus in culture; assay type: cell-based; details: 72 hours
From the text: as §1
A standard description of the liquid culture tests is provided in Example 1.
Mycelia fragments or conidia suspensions of a fungus, prepared either freshly from liquid cultures of the fungus or from cryogenic storage, are directly mixed into nutrient broth. DMSO solutions of the test compound (max. 10 mg/mL) is diluted with 0.025% Tween20 by factor 50 and 10 µL of this solution is pipetted into a microtiter plate (96-well format). […] The test plates are incubated in the dark at 24° C. and 96% relative humidity (rh). The inhibition of fungal growth is determined photometrically and visually after 3 - 7 days, depending on the pathosystem, and percent antifungal activity relative to the untreated check is calculated.
Conidia of the fungus from cryogenic storage were directly mixed into nutrient broth (PDB potato dextrose broth). After placing a DMSO solution of the test compositions into a microtiter plate (96-well format), the nutrient broth containing the fungal spores was added.

CCC(C)C1NC(=O)C2CCCN2C(=O)C(Cc2ccccc2)N(C)C(=O)C(Cc2ccccc2)NC(=O)C(C(C)C)N(C)C(=O)C(C(C)CC)OC(=O)C(C(C)(C)O)N(C)C(=O)C(CC(C)C)NC(=O)C(C(C)C)N(C)C1=O (stereo not drawn) [Aureobasidin A] (cyclo([ξNMeVal(3-OH)][X1][NMeV]F[NMeF]PI[NMeV]L); configuration not given here)
(A) inhibition (Alternaria solani; Aureobasidin A 0.0001 ppm alone, growth determined photometrically after 48 hours): 0%
(A) inhibition (Alternaria solani; Aureobasidin A 0.0002 ppm alone, 48 hours): 11%
(A) inhibition (Alternaria solani; Aureobasidin A 0.0006 ppm alone, 48 hours): 0%
(A) inhibition (Alternaria solani; Aureobasidin A 0.0012 ppm alone, 48 hours): 0%
(A) inhibition (Alternaria solani; Aureobasidin A 0.0025 ppm alone, 48 hours): 0%
(A) inhibition (Alternaria solani; Aureobasidin A 0.0050 ppm alone, 48 hours): 0%
(A) inhibition (Alternaria solani; Aureobasidin A 0.04 ppm alone (fenhexamid table), 48 hours): 40%
(A) inhibition (Botrytis cinerea; Aureobasidin A 0.0025 ppm alone (mefentrifluconazole table)): 8%
(A) inhibition (Botrytis cinerea; Aureobasidin A 0.0050 ppm alone (mefentrifluconazole table)): 7%
(A) inhibition (Botrytis cinerea; Aureobasidin A 0.01 ppm alone (imazalil table)): 27%
(A) inhibition (Botrytis cinerea; Aureobasidin A 0.02 ppm alone (fenhexamid table)): 53%
(A) inhibition (Botrytis cinerea; Aureobasidin A 0.02 ppm alone (imazalil table)): 46%
(A) inhibition (Botrytis cinerea; Aureobasidin A 0.0200 ppm alone (mefentrifluconazole table)): 22%

CC1COC(Cn2cncn2)(c2ccc(Oc3ccc(Cl)cc3)cc2Cl)O1 (stereo not drawn) [Difenoconazole, difenoconazole, reference compound]
inhibition at 0.0156 ppm (Alternaria solani; Alternaria solani, Difenoconazole 0.0156 ppm alone, 48 hours, read-out: (B) inhibition): 30%
inhibition at 0.0313 ppm (Alternaria solani; Alternaria solani, Difenoconazole 0.0313 ppm alone, 48 hours, read-out: (B) inhibition): 43%
inhibition at 0.0625 ppm (Alternaria solani; Alternaria solani, Difenoconazole 0.0625 ppm alone, 48 hours, read-out: (B) inhibition): 65%

CC1(C(=O)Nc2ccc(O)c(Cl)c2Cl)CCCCC1 [Fenhexamid, fenhexamid, reference compound]
inhibition at 0.1 ppm (Alternaria solani; Alternaria solani, Fenhexamid 0.10 ppm alone, 48 hours, read-out: (B) inhibition): 0%
inhibition at 0.0125 ppm (Botrytis cinerea; Botrytis cinerea, Fenhexamid 0.0125 ppm alone, read-out: (B) inhibition): 2%

C=CCOC(Cn1ccnc1)c1ccc(Cl)cc1Cl (stereo not drawn) [Imazalil, imazalil, reference compound]
inhibition at 0.0625 ppm (Botrytis cinerea; Botrytis cinerea, Imazalil 0.0625 ppm alone, read-out: (B) inhibition): 5%
inhibition at 0.125 ppm (Botrytis cinerea; Botrytis cinerea, Imazalil 0.1250 ppm alone, read-out: (B) inhibition): 22%

CC(O)(Cn1cncn1)c1ccc(Oc2ccc(Cl)cc2)cc1C(F)(F)F (stereo not drawn) [Mefentrifluconazole, mefentrifluconazole, reference compound]
(B) inhibition (Botrytis cinerea; Mefentrifluconazole 0.0250 ppm alone): 27%

From US20230240293A1, “FUNGICIDAL COMPOSITIONS” (SYNGENTA CROP PROTECTION AG, priority 2020, published 2023)
